Patent publication US20230365554A1, “SUBSTITUTED PYRROLO-PYRIDINONE DERIVATIVES AND THERAPEUTIC USES THEREOF” (The Broad Institute, Inc., priority 2020, published 2023)
pIC50: −log10 of the molar value.

molecular target: human CSNK1A1 (Homo sapiens (Human), UniProt P48729); test: CSNK1A1 Assay 2 (ADP-Glo, 1 μM ATP); type: biochemical; settings: median, Table 2, read-out: CSNK1A1 Assay 2 IC50 [mol/l] (median)
Method: CSNK1A1-inhibitory activity of compounds of the present invention in presence of 1 μM adenosine-tri-phosphate (ATP) was quantified employing the CSNK1A1 assay as described in the following paragraphs. In essence, the enzyme activity is measured by quantification of the adenosine-di-phosphate (ADP), which is generated as a co-product of the enzyme reaction, via the “ADP-Glo™ Kinase Assay” kit from the company Promega. This detection system works as follows: In a first step the ATP not consumed in the kinase reaction is quantitatively converted to cAMP employing an adenylate cyclase (“ADP-Glo-reagent”), then the adenylate cyclase is stopped and the ADP generated in the kinase reaction converted to ATP which generates in a luciferase-based reaction a glow-luminescence signal (“Kinase Detection Reagent”).
Recombinant fusion protein of N-terminal Glutathion-S-Transferase (GST) and full-length human CSNK1A1, expressed by baculovirus infected insect cells and purified via Glutathion affinity chromatography, was purchased from Life Technologies (product no. PV4174) and used as enzyme. As substrate for the kinase reaction the biotinylated peptide biotin-Ahx-KRRRAL-pS-VASLPGL (C-terminus in amide form) was used which can be purchased e.g. from the company Biosyntan (Berlin-Buch, Germany).
For the assay 50 nl of a 100 fold concentrated solution of the test compound in DMSO was pipetted into a white 1536-well microtiter plate (Greiner Bio-One, Frickenhausen, Germany), 2 μL of a solution of CSNK1A1 in aqueous assay buffer [50 mM HEPES pH 7.5, 10% (v/v) glycerol, 10 mM MgCl2, 50 mM NaCl, 1 mM dithiothreitol, 0.01% (w/v) bovine serum albumin, 0.01% (v/v) Triton X-100] were added and the mixture was incubated for 15 min at 22° C. to allow pre-binding of the test compounds to the enzyme before the start of the kinase reaction. Then the kinase reaction was started by the addition of 3 μL of a solution of ATP (1.67 μM=>final conc. in the 5 μL assay volume is 1 μM) and peptide substrate (50 μM=>final conc. in the 5 μL assay volume is 30 μM) in assay buffer and the resulting mixture was incubated for a reaction time of 30 min at 22° C. The concentration of CSNK1A1 was adjusted depending of the activity of the enzyme lot and was chosen appropriate to have the assay in the linear range, a typical concentrations are about 0.0375 ng/μL. The reaction was stopped by the addition of 2.5 μL of “ADP-Glo-reagent” (1:1.5 fold diluted with water) and the resulting mixture was incubated at 22° C. for 1 h to convert the ATP not consumed in the kinase reaction completely […]. Subsequently 2.5 μL of the “kinase detection reagent” (1.2 fold more concentrated than recommended by the producer) were added, the resulting mixture was incubated at 22° C. for 1 h and then the luminescence measured with a suitable measurement instrument (e.g. Viewlux™ from Perkin-Elmer). The amount of emitted light was taken as a measure for the amount of ADP generated and thereby for the activity of the CSNK1A1.
The data were normalised (enzyme reaction without inhibitor=0% inhibition, all other assay components but no enzyme=100% inhibition).

Sequence of human CSNK1A1 (P48729 whole entry): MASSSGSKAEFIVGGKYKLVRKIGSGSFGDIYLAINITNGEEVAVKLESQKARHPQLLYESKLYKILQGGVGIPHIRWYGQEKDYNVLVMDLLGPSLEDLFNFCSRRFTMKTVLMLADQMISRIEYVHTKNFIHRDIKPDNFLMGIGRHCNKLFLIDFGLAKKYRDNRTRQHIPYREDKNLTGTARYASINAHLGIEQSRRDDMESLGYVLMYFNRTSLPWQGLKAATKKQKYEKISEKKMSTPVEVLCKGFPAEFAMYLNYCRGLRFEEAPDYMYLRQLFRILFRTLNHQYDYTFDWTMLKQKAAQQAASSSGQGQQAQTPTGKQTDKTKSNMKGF

First: CCC1CNC(=O)c2c1[nH]c(-c1ccnc(NC(=O)Cc3ccc(F)cc3)c1)c2Nc1ccccc1 (racemic) [Example 1, N-{4-[3-anilino-7-ethyl-4-oxo-4,5,6,7-tetrahydro-1H-pyrrolo[3,2-c]pyridin-2-yl]pyridin-2-yl}-2-(4-fluorophenyl)acetamide]
Second: CC1CN(C)C(=O)c2c1[nH]c(-c1ccnc(NC(=O)Cc3ccc(F)cc3)c1)c2Nc1ccccc1 (racemic) [Example 6, N-{4-[3-anilino-5,7-dimethyl-4-oxo-4,5,6,7-tetrahydro-1H-pyrrolo[3,2-c]pyridin-2-yl]pyridin-2-yl}-2-(4-fluorophenyl)acetamide]
The pIC50 of the first is 0.23 log units higher: 8.82 for the first, 8.59 for the second. The first is the more potent here.

Going from CCc1c[nH]c(=O)c2c(Nc3ccccc3)c(-c3ccnc(NC(=O)C(CC(F)F)c4ccc(F)cc4)c3)[nH]c12 (racemic) [Example 5, N-[4-(3-anilino-7-ethyl-4-oxo-4,5-dihydro-1H-pyrrolo[3,2-c]pyridin-2-yl)pyridin-2-yl]-4,4-difluoro-2-(4-fluorophenyl)butanamide] to Cc1cn(C)c(=O)c2c(Nc3ccccc3)c(-c3ccnc(NC(=O)C(CC(F)F)c4ccc(F)cc4)c3)[nH]c12 (racemic) [Example 11, N-[4-(3-anilino-5,7-dimethyl-4-oxo-4,5-dihydro-1H-pyrrolo[3,2-c]pyridin-2-yl)pyridin-2-yl]-4,4-difluoro-2-(4-fluorophenyl)butanamide], the pIC50 falls from 8.14 to 7.72 (0.42 log units).

Going from CC1CN(C)C(=O)c2c1[nH]c(-c1ccnc(NC(=O)C(C)c3ccc(F)cc3)c1)c2Nc1ccccc1 (racemic) [Example 9, N-{4-[(7RS)-3-anilino-5,7-dimethyl-4-oxo-4,5,6,7-tetrahydro-1H-pyrrolo[3,2-c]pyridin-2-yl]pyridin-2-yl}-2-(4-fluorophenyl)propanamide] to Cc1cn(C)c(=O)c2c(Nc3ccccc3)c(-c3ccnc(NC(=O)C(C)c4ccc(F)cc4)c3)[nH]c12 (racemic) [Example 39, N-[4-(3-anilino-5,7-dimethyl-4-oxo-4,5-dihydro-1H-pyrrolo[3,2-c]pyridin-2-yl)pyridin-2-yl]-2-(4-fluorophenyl)propanamide], the pIC50 falls from 8.25 to 7.29 (0.96 log units).

First: CN1CC(CC(F)(F)F)c2[nH]c(-c3ccnc(NC(=O)Cc4ccc(F)cc4)c3)c(Nc3ccccc3)c2C1=O (racemic) [Example 14, N-{4-[3-anilino-5-methyl-4-oxo-7-(2,2,2-trifluoroethyl)-4,5,6,7-tetrahydro-1H-pyrrolo[3,2-c]pyridin-2-yl]pyridin-2-yl}-2-(4-fluorophenyl)acetamide]
Second: CN1CC(CC2CC2)c2[nH]c(-c3ccnc(NC(=O)Cc4ccc(F)cc4)c3)c(Nc3ccccc3)c2C1=O (racemic) [Example 18, N-{4-[3-anilino-7-(cyclopropylmethyl)-5-methyl-4-oxo-4,5,6,7-tetrahydro-1H-pyrrolo[3,2-c]pyridin-2-yl]pyridin-2-yl}-2-(4-fluorophenyl)acetamide]
The pIC50 of the first is 0.33 log units higher: 8.51 for the first, 8.18 for the second. The first is the more potent here.

Going from O=C1N[C@@H]2CCC[C@@H]2c2[nH]c(-c3ccnc(NC(=O)C(CC(F)F)c4ccc(F)cc4)c3)c(Nc3ccccc3)c21 (mixture of isomers) [Example 21, (2RS)—N-{4-[cis-3-anilino-4-oxo-1,4,5,5a,6,7,8,8a-octahydrocyclopenta[b]pyrrolo[2,3-d]pyridin-2-yl]pyridin-2-yl}-4,4-difluoro-2-(4-fluorophenyl)butanamide] to Cn1ccc2[nH]c(-c3ccnc(NC(=O)C(CC(F)F)c4ccc(F)cc4)c3)c(Nc3ccccc3)c2c1=O (racemic) [Example 28, N-[4-(3-anilino-5-methyl-4-oxo-4,5-dihydro-1H-pyrrolo[3,2-c]pyridin-2-yl)pyridin-2-yl]-4,4-difluoro-2-(4-fluorophenyl)butanamide], the pIC50 rises from 7.96 to 8.28 (0.32 log units). The second is the more potent here.

Cc1cc2[nH]c(-c3ccnc(NC(=O)C(CC(F)F)c4ccc(F)cc4)c3)c(Nc3ccccc3F)c2c(=O)n1C (racemic) [Example 31, 4,4-difluoro-N-{4-[3-(2-fluoroanilino)-5,6-dimethyl-4-oxo-4,5-dihydro-1H-pyrrolo[3,2-c]pyridin-2-yl]pyridin-2-yl}-2-(4-fluorophenyl)butanamide] gave a pIC50 of 7.51.
